Assay results: patent US20100036088A1, “Selective poly-N-substituted glycine antibiotics” (priority 2008, published 2010)
Square brackets hold non-standard residues; d marks the D form. Peptide text beside a SMILES is read from it. Nspe = C[C@H](NCC(=O)O)c1ccccc1; Nlys = NCCCCNCC(=O)O

Experiments:
Type in all cases: cell-based
[1] = tested on: NIH 3T3 mouse fibroblast cells; test: MTS assay, metabolic inhibition; settings: Table 3; NIH 3T3 cells
Method in brief: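 NIH/3T3 cells seeded at 5,000 per well, grown a day, then exposed to serially diluted peptoids in HBSS together with MTS reagent. Absorbance at 490 nm read after 3 hours at 37° C.; mean of six replicates.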

[2] = tested on: both strains of E. faecalis; settings: range over strains
Description: The activities of ampetoids tested against BSL2 Gram-positive strains, however, compared very favorably to those of pexiganan.
Broad-spectrum antibacterial assays. MICs of compounds were determined by microdilution procedure in Mueller-Hinton broth (MHB) in accordance with CLSI M7-A6 protocols in a manner similar to that described for the screen antibacterial assays. Inoculated microtiter plates were incubated at 35° C. for 24 hours prior to the result being recorded. Four ATCC strains that were used as standards are recommended by CLSI: Pseudomonas aeruginosa ATCC 27853, Escherichia coli ATCC 25922, Staphylococcus aureus ATCC 29213 and Enterococcus faecalis ATCC 29212. Other strains from the ATCC collection include Proteus vulgaris ATCC 49132, Proteus mirabilis ATCC 35659, Klebsiella pneumoniae ATCC 33495, Enterobacter aerogenes ATCC 35029 and Serratia marcescens ATCC 13880. S. aureus NRS100 (COL) is a well characterized methicillian-resistant S. aureus (MRSA) strain. The strains S. aureus VAN1 and S. aureus VAN2, vancomycin-resistant MRSA strains that were isolated in Michigan and Pennsylvania, were the first vancomycin-resistant strains clinically isolated. S. aureus NRS119 and S. aureus NRS120 are linezolid-resistant isolates from the Network on Antimicrobial Resistance in S. aureus (NARSA) collection. E. faecalis 99 and E. faecium 106 are vancomycin-resistant enterococcal strains.

B. subtilis = settings: Table 2; cation-adjusted broth
Description: (§1) Antibacterial assays. MICs were determined according to CLSI M7-A6 protocols in a 96-well microtiter plate. In test wells, 50 μL bacterial inoculum (5×10^5 CFU/ml) in Mueller-Hinton broth (MHB) was added to 50 μL peptoid solution in MHB (prepared by 1:2 serial dilutions). Positive controls contained 50 μL inoculum and 50 μL MHB without peptoid. […] MIC values reported were reproducible between three independent experimental replicates, each consisting of two parallel trials. Broad-spectrum antimicrobial susceptibility testing was performed against BSL2 pathogens by Nova Biologicals, Inc. (Conroe, Tex.).
(§2) Screening antibacterial assays. MICs were determined in 96-well microtiter plates in accordance with CLSI M7-A6 protocols. Peptoid solutions with 50 μL total volume were prepared using 2:1 serial dilutions. 50 μL of bacteria inoculum (1×10^6 CFU/mL) prepared in cation-adjusted Mueller-Hinton broth (CAMHB) was added to test wells. Control wells contained 100 μL MHB (no growth) or 50 μL inoculums with 50 μL MHB with no peptoid. […] Reported values were reproducible over three experiments, each containing two parallel trials.

E. coli = settings: Table 2; cation-adjusted broth
Description: as §1, §2

`C[C@@H](c1ccccc1)N(CC(N)=O)C(=O)CN(C(=O)CN(CCCCN)C(=O)CN(C(=O)CN(C(=O)CN(CCCCN)C(=O)CN(C(=O)CN(C(=O)CN(CCCCN)C(=O)CN(C(=O)CN(C(=O)CNCCCCN)[C@@H](C)c1ccccc1)[C@@H](C)c1ccccc1)[C@@H](C)c1ccccc1)[C@@H](C)c1ccccc1)[C@@H](C)c1ccccc1)[C@@H](C)c1ccccc1)[C@@H](C)c1ccccc1` [compound 1, H-(NLys-Nspe-Nspe)4-NH2] (H-[Nlys][Nspe][Nspe][Nlys][Nspe][Nspe][Nlys][Nspe][Nspe][Nlys][Nspe][Nspe]-NH2) was tested, and the “ID10 (10% metabolic inhibitory concentration)” value [1] was 5.1, the “ID50 (50% metabolic inhibitory concentration)” value [1] was 1.4 and the “MIC against both strains of E. faecalis” value [2] was 4 to 8 µg/mL. The “B. subtilis MIC” value (B. subtilis) was 1.6 µM and the “E. coli MIC” value (E. coli) was 6.3 µM.
